For one test, the target named is human DGKα (Homo sapiens (Human), UniProt P23743). Briefly: DGKα LIPGLO assay (extruded liposome substrate, ADP-Glo luminescence). It counts as biochemical. The conditions noted are these: liposome assay; read-out: DGK alpha LIPGLO IC50. (In general: ADP-Glo first removes unused ATP, then detects ADP through luciferase.)
In another test the test system is whole blood (pERK). Briefly: pERK Whole Blood assay (Table A; no whole-blood pERK method described). The conditions noted are these: normalized. It is filed as cell-based.
For test [1], the system named is human venous whole blood (IFN-γ). As to the kind of experiment: Human whole blood IFN-γ assay. It is filed as cell-based. The following applies: whole blood, normalized to 3 μM reference compound as 100% activation, read-out: IFN-γ Whole Blood Normalized EC50. The procedure:
Human venous whole blood (22.5 μL per well), obtained from healthy donors, was pre-treated with compounds for one hour at 37° C. in a humidified 95% air/5% CO2 incubator. The blood was stimulated with 2.5 μL anti-human CD3 and anti-CD28 mAb at a final concentration of 1 μg/mL each for 24 hours at 37° C. IFN-γ in the supernatants was measured using AlphLISA kit (Cat #AL217).

The next test addresses human DGKζ (Homo sapiens (Human), UniProt Q13574). Briefly: DGKζ LIPGLO assay (extruded liposome substrate, ADP-Glo luminescence). It is filed as biochemical. The following applies: liposome assay; read-out: DGK zeta LIPGLO IC50.

Where two headings read alike, the source gives them in different places.

Usually IC50 stands for the midpoint of a concentration-inhibition curve. What is called EC50 is the concentration at which the effect is half-maximal.

human DGKα, sequence (P23743 whole entry, looked up): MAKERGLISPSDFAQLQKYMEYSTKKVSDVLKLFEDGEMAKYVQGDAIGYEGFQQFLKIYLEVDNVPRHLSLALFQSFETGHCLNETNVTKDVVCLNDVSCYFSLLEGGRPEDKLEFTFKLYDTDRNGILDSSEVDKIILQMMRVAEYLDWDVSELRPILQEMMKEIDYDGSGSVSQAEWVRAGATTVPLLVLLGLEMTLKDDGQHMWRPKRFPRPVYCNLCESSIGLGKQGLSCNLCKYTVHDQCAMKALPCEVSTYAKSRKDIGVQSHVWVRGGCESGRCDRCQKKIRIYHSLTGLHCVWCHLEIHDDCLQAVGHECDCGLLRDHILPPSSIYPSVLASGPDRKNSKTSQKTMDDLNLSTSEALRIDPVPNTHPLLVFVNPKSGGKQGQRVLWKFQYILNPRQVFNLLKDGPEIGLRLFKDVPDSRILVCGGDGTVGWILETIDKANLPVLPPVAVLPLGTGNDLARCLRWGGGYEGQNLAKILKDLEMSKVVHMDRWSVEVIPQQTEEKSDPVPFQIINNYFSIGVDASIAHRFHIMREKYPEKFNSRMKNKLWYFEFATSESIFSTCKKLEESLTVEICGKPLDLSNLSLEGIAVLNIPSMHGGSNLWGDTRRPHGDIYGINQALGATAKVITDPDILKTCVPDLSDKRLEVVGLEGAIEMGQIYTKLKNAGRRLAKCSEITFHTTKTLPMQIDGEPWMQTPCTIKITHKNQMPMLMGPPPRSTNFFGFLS
human DGKζ, sequence (Q13574 other isoform, or with tags, fused parts or gaps): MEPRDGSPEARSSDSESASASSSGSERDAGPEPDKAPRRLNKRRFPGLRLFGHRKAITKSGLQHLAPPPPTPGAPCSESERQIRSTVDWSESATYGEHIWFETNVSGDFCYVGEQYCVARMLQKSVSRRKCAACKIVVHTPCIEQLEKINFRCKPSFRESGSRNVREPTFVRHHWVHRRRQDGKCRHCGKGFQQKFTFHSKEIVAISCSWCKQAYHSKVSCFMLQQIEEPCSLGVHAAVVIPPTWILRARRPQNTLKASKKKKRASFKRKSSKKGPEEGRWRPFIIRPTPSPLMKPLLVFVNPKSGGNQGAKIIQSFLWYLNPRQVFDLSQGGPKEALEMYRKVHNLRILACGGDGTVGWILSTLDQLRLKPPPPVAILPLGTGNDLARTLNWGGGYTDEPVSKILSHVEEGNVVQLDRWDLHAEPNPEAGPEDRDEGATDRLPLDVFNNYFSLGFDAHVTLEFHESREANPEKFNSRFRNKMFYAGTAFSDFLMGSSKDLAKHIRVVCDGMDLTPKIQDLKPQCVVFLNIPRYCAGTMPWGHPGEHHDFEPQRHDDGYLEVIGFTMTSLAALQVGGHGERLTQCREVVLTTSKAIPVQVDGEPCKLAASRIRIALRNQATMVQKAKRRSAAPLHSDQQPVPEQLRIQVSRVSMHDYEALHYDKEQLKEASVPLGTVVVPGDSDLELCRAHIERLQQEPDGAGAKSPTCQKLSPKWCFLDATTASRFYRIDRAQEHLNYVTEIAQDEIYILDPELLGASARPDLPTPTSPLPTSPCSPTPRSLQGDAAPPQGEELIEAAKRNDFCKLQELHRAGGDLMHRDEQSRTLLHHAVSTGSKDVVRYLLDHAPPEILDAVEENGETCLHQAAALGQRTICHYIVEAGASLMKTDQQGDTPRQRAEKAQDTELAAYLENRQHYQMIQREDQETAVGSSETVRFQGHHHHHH

On to `CC[C@H]1CN(C(c2ccc(F)cc2)c2ccc(C(F)(F)F)cn2)[C@H](CC)CN1c1nc(=O)n(C)c2ccc(C#N)nc12` (single isomer, unassigned) [Example 1], for which the IC50 on human DGKα is 16 nM; with whole blood (pERK), 1040 nM; on human DGKζ, 36 nM. The EC50 in test [1] came out at 27 nM.
In the case of `CC[C@H]1CN(C(c2ccc(F)cc2)c2ccc(C(F)(F)F)cn2)[C@H](CC)CN1c1nc(=O)n(C)c2ccc(C#N)nc12` (single isomer, unassigned) [Example 2], the IC50 on human DGKα worked out at 32 nM; in the test with whole blood (pERK) it was 150 nM; on human DGKζ, 47 nM. Also, the EC50 in test [1] amounted to 76 nM.
Consider `CCC(c1ccc(OC(F)(F)F)cc1F)N1C[C@H](CC)N(c2nc(=O)n(C)c3ccc(C#N)nc23)C[C@H]1CC` (single isomer, unassigned) [Example 12], for which the half-inhibitory concentration (IC50) on human DGKα was determined as 410 nM; with whole blood (pERK), 600 nM; at human DGKζ, 600 nM. Moreover, the EC50 in test [1] (Homo sapiens) was 4150 nM.
As to `CC[C@H]1CN(C(C)c2ccc3c(c2)OC(F)(F)O3)[C@H](CC)CN1c1nc(=O)n(C)c2ccc(C#N)nc12` (single isomer, unassigned) [Example 14], the IC50 at human DGKα is 350 nM; in the test on whole blood (pERK), 900 nM; on human DGKζ, 36 nM. Further, the EC50 in test [1] was 94 nM.
Taken in the same sequence, the figures for `CC[C@H]1CN(C(C)c2ccc(C(F)(F)F)cc2)[C@H](CC)CN1c1nc(=O)n(C)c2ccc(C#N)nc12` (single isomer, unassigned) [Example 20] were 140 nM, 130 nM, 36 nM and 60 nM.
Consider `CC[C@H]1CN(C(C)c2ccc(OCC3CC3)cc2)[C@H](CC)CN1c1nc(=O)n(C)c2ccc(C#N)nc12` (single isomer, unassigned) [Example 23], for which the IC50 on human DGKα amounted to 58 nM; with whole blood (pERK), 86 nM; at human DGKζ, 29 nM. The EC50 in test [1] came out at 11 nM.
Taken in the same sequence, the figures for `CC[C@H]1CN(C(C)c2ccc(C3CC3)cc2)[C@H](CC)CN1c1nc(=O)n(C)c2ccc(C#N)nc12` (single isomer, unassigned) [Example 29] were 40 nM, 100 nM, 10 nM and 27 nM.
On to `CC[C@H]1CN(C(C)c2ccc(OC(F)(F)F)c(F)c2)[C@H](CC)CN1c1nc(=O)n(C)c2ccc(C#N)nc12` (single isomer, unassigned) [Example 30], for which the results for the IC50 at human DGKα, in the test on whole blood (pERK) and at human DGKζ were 76 nM, 59 nM and 4 nM, respectively. The EC50 in test [1] stood at 23 nM.
For the compound `CC[C@H]1CN(C(c2ccc(F)cc2)c2ccon2)[C@H](CC)CN1c1nc(=O)n(C)c2ccc(C#N)nc12` (single isomer, unassigned) [Example 35], the half-maximal inhibitory concentration (IC50) at human DGKα stood at 30 nM; with whole blood (pERK) it was 150 nM; at human DGKζ, 120 nM. Also, in test [1], the EC50 came out at 120 nM.
With `CC[C@H]1CN(C(C)c2ccc(OC(F)(F)F)cc2F)[C@H](CC)CN1c1nc(=O)n(C)c2ccc(C#N)nc12` (single isomer, unassigned) [Example 38], the IC50 at human DGKα was determined as 66 nM; in the test on whole blood (pERK), 220 nM; at human DGKζ it was 120 nM. Also, the EC50 in test [1] turned out to be 72 nM.
Taken in the same sequence, the figures for `CC[C@H]1CN(C(C)c2ccc(C3CC3)cc2F)[C@H](CC)CN1c1nc(=O)n(C)c2ccc(C#N)nc12` (single isomer, unassigned) [Example 40] were 320 nM, 10 nM, 41 nM and 21 nM.
In the case of `CC[C@@H]1CN(c2nc(=O)n(C)c3ccc(C#N)nc23)[C@@H](C)CN1C(C)c1ccc(OC(F)(F)F)cc1` (single isomer, unassigned) [Example 48], the IC50 on human DGKα came out at 16 nM; in the test with whole blood (pERK), 25 nM; at human DGKζ it was 48 nM. Moreover, in test [1], the EC50 was found to be 18 nM.
For the compound `CC[C@@H]1CN(c2nc(=O)n(C)c3ccc(C#N)nc23)[C@@H](C)CN1C(c1ccc(F)cc1)c1nc(C2CC2)cs1` (single isomer, unassigned) [Example 51], the concentration for half-maximal inhibition (IC50) is 37 nM on human DGKα, 9 nM in the test on whole blood (pERK) and 27 nM on human DGKζ. For the same compound, the EC50 in test [1] (Homo sapiens) was 6 nM.
For `CC[C@@H]1CN(c2nc(=O)n(C)c3ccc(C#N)nc23)[C@@H](C)CN1C(C)c1ccc(OC)cc1` (single isomer, unassigned) [Example 56], the figures for the IC50 at human DGKα, with whole blood (pERK) and on human DGKζ were 37 nM, 200 nM and 11 nM, respectively. For the same compound, in test [1], the EC50 came out at 39 nM.
Taken in the same sequence, the figures for `CC[C@@H]1CN(c2nc(=O)n(C)c3ccc(C#N)nc23)[C@@H](C)CN1C(c1ccc(F)cc1)c1ccon1` (single isomer, unassigned) [Example 73] were 29 nM, 80 nM, 140 nM and 22 nM.
On to `CC[C@@H]1CN(c2nc(=O)n(C)c3ccc(C#N)nc23)[C@@H](C)CN1C(c1ccc(F)cc1)c1ccc(C2CC2)cn1` (single isomer, unassigned) [Example 75], for which the IC50 at human DGKα is 39 nM; in the test with whole blood (pERK) it was 100 nM; on human DGKζ, 33 nM. For the same compound, in test [1], the EC50 was found to be 30 nM.
Turning to `CC[C@@H]1CN(c2nc(=O)n(C)c3ccc(C#N)nc23)[C@@H](C)CN1C(C)c1ccc(OC(F)(F)F)cc1F` (single isomer, unassigned) [Example 81], the IC50 amounted to 300 nM on human DGKα, 99 nM with whole blood (pERK) and 130 nM at human DGKζ. Also, the concentration giving a half-maximal response (EC50) in test [1] came to 57 nM.
Turning to `CC[C@@H]1CN(c2nc(=O)n(C)c3ccc(C#N)nc23)[C@@H](C)CN1C(c1ccc(F)cc1)c1cc(C2CC2)on1` (single isomer, unassigned) [Example 101], the values for the IC50 at human DGKα, with whole blood (pERK) and on human DGKζ were 140 nM, 250 nM and 66 nM, respectively. The EC50 in test [1] (Homo sapiens) is 100 nM.
In the case of `C[C@@H]1CN(c2nc(=O)n(C)c3ccc(C#N)nc23)[C@@H](C)CN1C(c1ccc(F)cc1)c1nc(C2CC2)no1` (single isomer, unassigned) [Example 107], the IC50 on human DGKα turned out to be 130 nM; with whole blood (pERK) it was 120 nM; on human DGKζ it was 40 nM. Besides, the EC50 in test [1] came to 49 nM.
Turning to `C[C@@H]1CN(c2nc(=O)n(C)c3ccc(C#N)nc23)[C@@H](C)CN1C(c1ccc(F)cc1)c1nc(C(C)(C)C)no1` (single isomer, unassigned) [Example 108], the IC50 was 400 nM on human DGKα, 28 nM in the test with whole blood (pERK) and 50 nM at human DGKζ. Besides, in test [1] (Homo sapiens), the EC50 was found to be 57 nM.
For the compound `C[C@@H]1CN(c2nc(=O)n(C)c3ccc(C#N)nc23)[C@@H](C)CN1C(c1ccc(F)cc1)c1nc(C(C)(C)C)no1` (single isomer, unassigned) [Example 109], the 50% inhibitory concentration (IC50) at human DGKα was 34 nM; in the test with whole blood (pERK), 48 nM; on human DGKζ, 190 nM. The EC50 in test [1] was 110 nM.
With `CC(c1ccc(OC(F)(F)F)cc1)N1C[C@H](C)N(c2nc(=O)n(C)c3ccc(C#N)nc23)C[C@H]1C` (single isomer, unassigned) [Example 131], the IC50 amounted to 10 nM at human DGKα, 170 nM in the test with whole blood (pERK) and 130 nM on human DGKζ. Moreover, the EC50 in test [1] turned out to be 360 nM.

The record behind these values is patent US11584747B2, “Substituted pyridopyrimidinonyl compounds useful as T cell activators” (BRISTOL-MYERS SQUIBB COMPANY, priority 2019, dated 2023).
